Here are results for 2 compounds from the NIST ThermoML archive (doi:10.1016/j.tca.2018.01.008).

The structures appear in SMILES notation. Numbers after ± are expanded uncertainties.

For this data set the following is noted: 293.15 K; 101.33 kPa; Liquid; transient hot wire.

For the compound `OCCO` [1,2-ethanediol], the thermal conductivity was found to be 0.25 ± 0.004 W/m/K.
With `O` [water], the thermal conductivity turned out to be 0.597 ± 0.01 W/m/K.
